Measurements reported in patent publication US12577245B2, “Sulfonyl benzamide derivatives as Bcl-2 inhibitors” (ASCENTAGE PHARMA (SUZHOU) CO., LTD., priority 2021, dated 2026).

Tests used:
[1] = test system: MV-4-11 cells; experiment: CCK-8 cell viability assay in MV-4-11 cells; format: cell-based; settings: Homo sapiens, MV4-11, 72 h, 10% FBS, 3 days
Description: MV-4-11 cells were obtained from University of Michigan. Cells were maintained in the RPMI-1640 medium with 10% FBS and 1% P/S at 37° C. and an atmosphere of 5% CO2.
• The effect of representative Compounds of the Disclosure on cell viability was determined using Cell Counting Kit-8 (CCK-8) assay (Shanghai Life iLab Biotech) according to the manufacturer's instructions. Each tested compound was serially diluted in culture medium, and 100 μL of the compound dilution was added to the corresponding well of the cell plate. 100 μL of MV-4-11 cell suspension (20000 cells/well) in culture medium were seeded into 96-well plates. The cells were incubated at 37° C. in an atmosphere of 5% CO2 for 3 days. At the end of 3 days, 20 μL of CCK-8 solution was added to each well of the plate and incubated for 1-4 hours. The plates were read at 450 nm on the Biotek plate reader. The readings were normalized to the vehicle cells, and the IC50 was calculated using GraphPad Prism 8 software.

[2] = molecular target: Bcl-2 WT (Homo sapiens, UniProt P10415); experiment: Bcl-2 WT inhibition, fluorescence polarization (Flu-BIM tracer) binding assay; settings: FP; 20 nM Bcl2, 5 nM Flu-BIM, 1 h incubation; read-out: Bcl-2 w.t. (FP)
[3] = test system: RS4; 11Bcl-2-G101V cells; experiment: CellTiter-Glo (CTG) cell viability assay in RS4;11-Bcl-2-G101V cells; format: cell-based; settings: 72 h, 10% FBS, 3 days
Description: RS4; 11Bcl-2-G101V, RS4; 11Bcl-2-D103E, RS4; 11Bcl-2-V156D and RS4; 11Bcl-2-G101V-D103E cells were obtained from Cobioer Biosciences. Cells were maintained in the RPMI-1640 medium with 10% FBS, 1% P/S and puromycin (1 μg/mL) at 37° C. and an atmosphere of 5% CO2.
• The effect of representative Compounds of the Disclosure on cell viability was determined using CellTiter-Glo® (CTG) luminescent cell viability assay (Promega, USA) according to the manufacturer's instructions. 95 μL of cell suspension (10000 cells/well) in culture medium were seeded into 96-well plates and cultured 4 hours. Each tested compound was serially diluted in blank culture medium, and 5 μL of the compound dilution was added to the corresponding well of the cell plate. After the addition of the tested compound, the cells were incubated at 37° C. in an atmosphere of 5% CO2 for 3 days. At the end of 3 days, 30 μL of CTG solution was added to each well of the plate and mix contents for 2 minutes on an orbital shaker. Allow the plate to incubate at room temperature for 15 mins to stabilize signal and record RLU on the Biotek plate reader. The readings were normalized to the vehicle cells, and the IC50 was calculated using GraphPad Prism 8 software.

Chain of Bcl-2 WT (P10415 whole entry): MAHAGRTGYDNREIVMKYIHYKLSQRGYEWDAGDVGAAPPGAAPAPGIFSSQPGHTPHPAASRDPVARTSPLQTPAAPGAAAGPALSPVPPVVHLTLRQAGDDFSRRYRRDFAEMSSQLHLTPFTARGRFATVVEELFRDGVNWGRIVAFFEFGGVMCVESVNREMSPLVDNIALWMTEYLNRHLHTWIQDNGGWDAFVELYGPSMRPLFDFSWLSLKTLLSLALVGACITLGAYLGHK

Row | SMILES | IC50 [1] [nM] | IC50 [2] [nM] | IC50 [3] [nM]
1 | Cc1sccc1C1=C(CN2CCN(c3ccc(C(=O)NS(=O)(=O)c4ccc(NCC5CCOCC5)c([N+](=O)[O-])c4)c(Oc4cnc5[nH]ccc5c4)c3)CC2)CCC(C)(C)C1 [Example 1, 2-((1H-pyrrolo[2,3-b]pyridin-5-yl)oxy)-4-(4-((4,4-dimethyl-2-(2-methylthiophen-3-yl)cyclohex-1-en-1-yl)methyl)piperazin-1-yl)-N-((3-nitro-4-(((tetrahydro-2H-pyran-4-yl)methyl)amino)phenyl)sulfonyl)benzamide] | 27 | 15.7 | 1170
2 | Cc1cscc1C1=C(CN2CCN(c3ccc(C(=O)NS(=O)(=O)c4ccc(NCC5CCOCC5)c([N+](=O)[O-])c4)c(Oc4cnc5[nH]ccc5c4)c3)CC2)CCC(C)(C)C1 [Example 2, 2-((1H-pyrrolo[2,3-b]pyridin-5-yl)oxy)-4-(4-((4,4-dimethyl-2-(4-methylthiophen-3-yl)cyclohex-1-en-1-yl)methyl)piperazin-1-yl)-N-((3-nitro-4-(((tetrahydro-2H-pyran-4-yl)methyl)amino)phenyl)sulfonyl)benzamide] | 28 | 15.9 | 1300
3 | CC1(C)CCC(CN2CCN(c3ccc(C(=O)NS(=O)(=O)c4ccc(NCC5CCOCC5)c([N+](=O)[O-])c4)c(Oc4cnc5[nH]ccc5c4)c3)CC2)=C(c2csc(C(F)(F)F)c2)C1 [Example 3, 2-((1H-pyrrolo[2,3-b]pyridin-5-yl)oxy)-4-(4-((4,4-dimethyl-2-(5-(trifluoromethyl)thiophen-3-yl)cyclohex-1-en-1-yl)methyl)piperazin-1-yl)-N-((3-nitro-4-(((tetrahydro-2H-pyran-4-yl)methyl)amino)phenyl)sulfonyl)benzamide] | 214 | 27.7 | 3800
4 | Cc1ccc(C2=C(CN3CCN(c4ccc(C(=O)NS(=O)(=O)c5ccc(NCC6CCOCC6)c([N+](=O)[O-])c5)c(Oc5cnc6[nH]ccc6c5)c4)CC3)CCC(C)(C)C2)s1 [Example 6, 2-((1H-pyrrolo[2,3-b]pyridin-5-yl)oxy)-4-(4-((4,4-dimethyl-2-(5-methylthiophen-2-yl)cyclohex-1-en-1-yl)methyl)piperazin-1-yl)-N-((3-nitro-4-(((tetrahydro-2H-pyran-4-yl)methyl)amino)phenyl)sulfonyl)benzamide] | 66 | 16.2 | 3940
5 | CC(C)c1csc(C2=C(CN3CCN(c4ccc(C(=O)NS(=O)(=O)c5ccc(NCC6CCOCC6)c([N+](=O)[O-])c5)c(Oc5cnc6[nH]ccc6c5)c4)CC3)CCC(C)(C)C2)c1 [Example 8, 2-((1H-pyrrolo[2,3-b]pyridin-5-yl)oxy)-4-(4-((2-(4-isopropylthiophen-2-yl)-4,4-dimethylcyclohex-1-en-1-yl)methyl)piperazin-1-yl)-N-((3-nitro-4-(((tetrahydro-2H-pyran-4-yl)methyl)amino)phenyl)sulfonyl)benzamide] | 21 | 17.7 | 1440
6 | CC(C)c1csc(C2=C(CN3CCN(c4ccc(C(=O)NS(=O)(=O)c5ccc(NC[C@H]6COCCO6)c([N+](=O)[O-])c5)c(Oc5cnc6[nH]ccc6c5)c4)CC3)CCC(C)(C)C2)c1 [Example 10, (S)—N-((4-(((1,4-dioxan-2-yl)methyl)amino)-3-nitrophenyl)sulfonyl)-2-((1H-pyrrolo[2,3-b]pyridin-5-yl)oxy)-4-(4-((2-(4-isopropylthiophen-2-yl)-4,4-dimethylcyclohex-1-en-1-yl)methyl)piperazin-1-yl)benzamide] | 16 | 20.3 | 1040
7 | CC(C)c1sccc1C1=C(CN2CCN(c3ccc(C(=O)NS(=O)(=O)c4ccc(NCC5CCOCC5)c([N+](=O)[O-])c4)c(Oc4cnc5[nH]ccc5c4)c3)CC2)CCC(C)(C)C1 [Example 11, 2-((1H-pyrrolo[2,3-b]pyridin-5-yl)oxy)-4-(4-((2-(2-isopropylthiophen-3-yl)-4,4-dimethylcyclohex-1-en-1-yl)-methyl)piperazin-1-yl)-N-((3-nitro-4-(((tetrahydro-2H-pyran-4-yl)methyl)amino)-phenyl)sulfonyl)benzamide] | 54 | 20.9 | 2360
8 | CC1(C)CCC(CN2CCN(c3ccc(C(=O)NS(=O)(=O)c4ccc(NC[C@H]5COCCO5)c([N+](=O)[O-])c4)c(Oc4cnc5[nH]ccc5c4)c3)CC2)=C(c2cc3c(s2)CCN(c2ccc(F)cc2)C3)C1 [Example 15, (S)—N-((4-(((1,4-dioxan-2-yl)methyl)amino)-3-nitrophenyl)sulfonyl)-2-((1H-pyrrolo[2,3-b]pyridin-5-yl)oxy)-4-(4-((2-(5-(4-fluorophenyl)-4,5,6,7-tetrahydrothieno[3,2-c]pyridin-2-yl)-4,4-dimethylcyclohex-1-en-1-yl)methyl)piperazin-1-yl)benzamide] | 466 | 27.6 | 8810
9 | CC1(C)CCC(CN2CCN(c3ccc(C(=O)NS(=O)(=O)c4ccc(NC[C@H]5CC[C@](C)(O)CC5)c([N+](=O)[O-])c4)c(Oc4cnc5[nH]ccc5c4)c3)CC2)=C(c2cc3c(s2)CCN(c2ccc(F)cc2)C3)C1 [Example 16, 2-((1H-pyrrolo[2,3-b]pyridin-5-yl)oxy)-4-(4-((2-(5-(4-fluorophenyl)-4,5,6,7-tetrahydrothieno[3,2-c]pyridin-2-yl)-4,4-dimethylcyclohex-1-en-1-yl)methyl)piperazin-1-yl)-N-((4-((((1r,4r)-4-hydroxy-4-methylcyclohexyl)methyl)amino)-3-nitrophenyl)sulfonyl)benzamide] | 445 | 42 | 5630
10 | Cc1cc(C(C)(C)O)cc(C)c1-c1csc(C2=C(CN3CCN(c4ccc(C(=O)NS(=O)(=O)c5ccc(NC[C@H]6CC[C@](C)(O)CC6)c([N+](=O)[O-])c5)c(Oc5cnc6[nH]ccc6c5)c4)CC3)CCC(C)(C)C2)c1 [Example 65, 2-((1H-pyrrolo[2,3-b]pyridin-5-yl)oxy)-N-((4-((((1r,4r)-4-hydroxy-4-methylcyclohexyl)methyl)amino)-3-nitrophenyl)sulfonyl)-4-(4-((2-(4-(4-(2-hydroxypropan-2-yl)-2,6-dimethylphenyl)thiophen-2-yl)-4,4-dimethylcyclohex-1-en-1-yl)methyl)piperazin-1-yl)benzamide] | 192 | – | 598
11 | CC1(C)CCC(CN2CCN(c3ccc(C(=O)NS(=O)(=O)c4ccc(NC[C@H]5CC[C@](C)(O)CC5)c([N+](=O)[O-])c4)c(Oc4cnc5[nH]ccc5c4)c3)CC2)=C(c2cc(-c3c(Cl)cc(C(C)(C)O)cc3Cl)cs2)C1 [Example 66, 2-((1H-pyrrolo[2,3-b]pyridin-5-yl)oxy)-4-(4-((2-(4-(2,6-dichloro-4-(2-hydroxypropan-2-yl)phenyl)thiophen-2-yl)-4,4-dimethylcyclohex-1-en-1-yl)methyl)piperazin-1-yl)-N-((4-((((1r,4r)-4-hydroxy-4-methylcyclohexyl)methyl)amino)-3-nitrophenyl)sulfonyl)benzamide] | 132 | – | 361
12 | COC(C)(C)c1ccc(-c2csc(C3=C(CN4CCN(c5ccc(C(=O)NS(=O)(=O)c6ccc(NC[C@H]7CC[C@](C)(O)CC7)c([N+](=O)[O-])c6)c(Oc6cnc7[nH]ccc7c6)c5)CC4)CCC(C)(C)C3)c2)c(F)c1 [Example 76, 2-((1H-pyrrolo[2,3-b]pyridin-5-yl)oxy)-4-(4-((2-(4-(2-fluoro-4-(2-methoxypropan-2-yl)phenyl)thiophen-2-yl)-4,4-dimethylcyclohex-1-en-1-yl)methyl)piperazin-1-yl)-N-((4-((((1r,4r)-4-hydroxy-4-methylcyclohexyl)methyl)amino)-3-nitrophenyl)sulfonyl)benzamide] | 95 | – | 1700
13 | CC1(C)CCC(CN2CCN(c3ccc(C(=O)NS(=O)(=O)c4ccc(NC[C@H]5CC[C@](C)(O)CC5)c([N+](=O)[O-])c4)c(Oc4cnc5[nH]ccc5c4)c3)CC2)=C(c2cc(-c3c(F)cc(C4(O)CCC4)cc3F)cs2)C1 [Example 77, 2-((1H-pyrrolo[2,3-b]pyridin-5-yl)oxy)-4-(4-((2-(4-(2,6-difluoro-4-(1-hydroxycyclobutyl)phenyl)thiophen-2-yl)-4,4-dimethylcyclohex-1-en-1-yl)methyl)piperazin-1-yl)-N-((4-((((1r,4r)-4-hydroxy-4-methylcyclohexyl)methyl)amino)-3-nitrophenyl)sulfonyl)benzamide] | 25 | – | 490
